Patent publication US20180148418A1, “AMIDO-SUBSTITUTED CYCLOHEXANE DERIVATIVES” (Bayer Pharma Aktiengesellschaft, priority 2015, published 2018)

How the values were obtained:
[1] = tested on: HEK293 cells cotransfected with the FOP control vector; test: HEK293 FOP assay (control reporter with non-functional TCF elements); format: cell-based; conditions: 16 hours
Description: In a parallel approach, HEK293 cells were cotransfected with the FOP control vector and pcDNA3. The FOP vector is identical to the TOP construct, but it contains instead of functional TCF elements a randomized, non-functional sequence. For this transfection a stable transfected cell line was generated as well, based on selection with Geneticin (1 mg/ml).
(§1) In preparation of the assay, the two cell lines were plated 24 h before beginning the test at 10000 cells per well in a 384 micro titre plate (MTP) in 30 μl growth medium. […] The recombinant human Wnt-3a was thereby applied between 2500 and 5 ng/ml in two-fold dilution steps.
(§2) Selective inhibitory activity for small molecules on the wildtype Wnt pathway was determined after parallel incubation of both (TOP and FOP) HEK293 reporter cell lines with a compound dilution series from 50 μM to 15 nM in steps of 3.16-fold dilutions in CAFTY buffer (130 mM sodium chloride, 5 mM potassium chloride, 20 mM HEPES, 1 mM magnesium chloride, 5 mM sodium bicarbonate, pH 7.4) containing 2 mM Ca^2+ and 0.01% BSA.
(§3) The compounds were thereby serially prediluted in 100% DMSO and thereafter 50 fold into the CAFTY compound dilution buffer (described above).

[2] = tested on: wildtype Wnt signaling cascade; test: HEK293 TOP assay (Super TopFlash luciferase reporter, Wnt-3a stimulated); format: cell-based; conditions: HEK293 TOP reporter cells, Wnt3a at EC50, 16 hours
Source text: 7.1 Measurement of the Inhibitory Activity of Selected Compounds on the Wildtype Wnt Signaling Cascade: HEK293 TOP/FOP Assay
In order to discover and characterize small molecules which inhibit the wildtype Wnt pathway, a cellular reporter assay was employed. The corresponding assay cell was generated by transfection of the mammalian cell line HEK293 (ATCC, #CRL-1573) with the Super TopFlash vector (Morin, Science 275, 1997, 1787-1790; Molenaar et al., Cell 86 (3), 1996, 391-399). The HEK293 cell line is cultivated at 37° C. and 5% CO2 in DMEM (Life Technologies, #41965-039), supplemented with 2 mM glutamine, 20 mM HEPES, 1.4 mM pyruvate, 0.15% Na-bicarbonate and 10% foetal bovine serum (GIBCO, #10270). Stable transfectants were generated by selection with 300 μg/ml Hygromycin.
as §1, §2, §3

[3] = target: T1, TNKS2 (Homo sapiens, UniProt Q9H2K2); test: TNKS2 Assay B (auto-parsylation, [3H]-NAD+ SPA); format: biochemical; conditions: 6 nM TNKS2, auto-parsylation, over night at room temperature
T1 construct: purchased BPS Bioscience, San Diego, USA 80572 (TNKS2 Histone Ribosylation Assay Kit)
T1 sequence (Q9H2K2 1-1166): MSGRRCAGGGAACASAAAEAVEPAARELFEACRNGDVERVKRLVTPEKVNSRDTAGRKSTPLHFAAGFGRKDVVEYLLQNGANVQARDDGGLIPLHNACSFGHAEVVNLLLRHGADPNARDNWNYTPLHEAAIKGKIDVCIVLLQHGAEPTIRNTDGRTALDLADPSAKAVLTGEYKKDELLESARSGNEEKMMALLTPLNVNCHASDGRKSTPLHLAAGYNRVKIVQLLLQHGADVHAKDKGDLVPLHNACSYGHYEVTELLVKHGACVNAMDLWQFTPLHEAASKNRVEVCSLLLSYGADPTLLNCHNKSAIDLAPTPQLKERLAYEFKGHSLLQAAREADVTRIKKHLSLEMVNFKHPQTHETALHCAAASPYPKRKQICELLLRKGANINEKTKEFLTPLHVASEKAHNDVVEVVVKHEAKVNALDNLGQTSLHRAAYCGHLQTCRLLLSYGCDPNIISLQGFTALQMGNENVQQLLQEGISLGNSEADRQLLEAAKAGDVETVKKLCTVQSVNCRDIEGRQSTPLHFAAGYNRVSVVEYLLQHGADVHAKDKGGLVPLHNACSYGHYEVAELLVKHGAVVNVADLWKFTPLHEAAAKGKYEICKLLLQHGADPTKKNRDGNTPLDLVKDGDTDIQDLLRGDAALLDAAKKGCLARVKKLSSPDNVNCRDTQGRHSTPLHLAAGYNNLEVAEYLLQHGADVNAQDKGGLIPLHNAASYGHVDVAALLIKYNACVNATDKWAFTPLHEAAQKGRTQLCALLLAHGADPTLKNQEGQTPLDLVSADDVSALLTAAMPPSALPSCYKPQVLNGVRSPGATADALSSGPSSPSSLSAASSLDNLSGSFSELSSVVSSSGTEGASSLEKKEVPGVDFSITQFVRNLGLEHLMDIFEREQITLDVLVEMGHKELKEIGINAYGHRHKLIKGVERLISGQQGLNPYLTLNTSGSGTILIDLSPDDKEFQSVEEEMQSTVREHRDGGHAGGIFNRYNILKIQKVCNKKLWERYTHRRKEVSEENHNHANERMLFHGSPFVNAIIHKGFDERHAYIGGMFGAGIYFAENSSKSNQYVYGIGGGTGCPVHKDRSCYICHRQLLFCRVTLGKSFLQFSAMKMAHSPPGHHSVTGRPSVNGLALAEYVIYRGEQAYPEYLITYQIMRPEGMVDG
Description: The potency of selected compounds according to the invention was assessed applying a modified in vitro inhibition assay. Here, the TNKS2 catalyzed NAD^+-dependent ribosylation of the enzyme itself (auto-parsylation) was detected using [^3H]-NAD^+ as substrate and applying the scintillation proximity assay (SPA) method to detect tritium-labeled, parsylated TNKS2. The intensity of the readout signal is proportional to the incorporated [^3H]-NAD^+. Inhibition of TNKS2 leads to a decreased incorporation of [^3H]-NAD^+ and consequently to a lower readout signal intensity. The concentration of a test compound which inhibits the enzyme activity by 50% (corresponds to half of the normed readout signal intensity) is reported as IC50.
Protocol Auto-Parsylation Assay
The assay was conducted in a 96 well MTP format with the identical TNKS2 enzyme sample and NAD^+ sample as in the histone ribosylation assay with the following modifications: TNKS2 enzyme sample was diluted with a modified assay buffer (50 mM MES pH 7.0, 1 mM DTT, 0.01% Triton X-100) to a final concentration of 6 nM TNKS2 and 10×NAD^+ solution was diluted with the modified assay buffer (s. above) to a final 0.445×NAD^+ solution doped with 100 Bq/μl [^3H]-NAD^+[Catalog #NET443H050UC, Perkin Elmer, Waltham, Mass., USA]. Substrate solution (10 μl) was incubated with different test compound concentrations (2.5 μl in 10% DMSO in modified assay buffer) or control (2.5 μl 10% DMSO in modified assay buffer only) and enzyme (10 μl) over night at room temperature. Incorporated tritium was measured after addition of 50 ul SPA beads (1 mg/ml) [Catalog #RPNQ0095 20 mg/ml, Perkin Elmer, Waltham, Mass., USA; diluted 1:10 with Dulbecco's phosphate buffered saline, PBS Catalog #D8537, Sigma-Aldrich, Steinheim, Germany] and detection of the photon emission with a beta count plate reader [Wallac MicroBeta®, Perkin Elmer, Waltham, Mass., USA].

## CNC(=O)c1[nH]cnc1C(=O)N[C@H]1CC[C@]2(CC1)CC(O)N(c1ccc(F)cc1Cl)C2=O (mixture of isomers) [Example 307, N^4-[(trans)-2-(2-chloro-4-fluorophenyl)-3-hydroxy-1-oxo-2-azaspiro[4.5]dec-8-yl]-N^5-methyl-1H-imidazole-4,5-dicarboxamide (mixture of isomers at C3)]
[1]; Homo sapiens
  IC50: ≥ 50000 nM
[2]; Homo sapiens, HEK293, 16 h
  IC50: 30 nM

## CC1C[C@]2(CC[C@@H](NC(=O)c3cnn4cccnc34)CC2)C(=O)N1c1ccc(F)cc1Cl (mixture of isomers) [Example 355, N-[(trans)-2-(2-chloro-4-fluorophenyl)-3-methyl-1-oxo-2-azaspiro[4.5]dec-8-yl]pyrazolo[1,5-a]pyrimidine-3-carboxamide (mixture of isomers at C3)]
[3]
  IC50: 8.4 nM
[1]; Homo sapiens
  IC50: ≥ 50000 nM
[2]; Homo sapiens, HEK293, 16 h
  IC50: 3.4 nM

## Cc1c(C(C)N(C)C)cnc2c(C(=O)N[C@H]3CC[C@@]4(CCN(c5ccc(F)cc5Cl)C4=O)CC3)cnn12 (mixture of isomers) [Example 358, N-[(trans)-2-(2-chloro-4-fluorophenyl)-1-oxo-2-azaspiro[4.5]dec-8-yl]-6-[1-(dimethylamino)ethyl]-7-methylpyrazolo[1,5-a]pyrimidine-3-carboxamide (racemate)]
[3]
  IC50: 41 nM
[1]; Homo sapiens
  IC50: ≥ 50000 nM
[2]; Homo sapiens, HEK293, 16 h
  IC50: 5.7 nM

## CC1CC2(CCC(NC(=O)c3cnn4cccnc34)CC2)C(=O)N1c1ccc(F)cc1Cl (single isomer, unassigned; enantiomer 1) [Example 356, N-[(trans)-2-(2-chloro-4-fluorophenyl)-3-methyl-1-oxo-2-azaspiro[4.5]dec-8-yl]pyrazolo[1,5-a]pyrimidine-3-carboxamide (enantiomer 1)]
[1]
  IC50: ≥ 50000 nM
[2]
  IC50: 26 nM

## CC1CC2(CCC(NC(=O)c3cnn4cccnc34)CC2)C(=O)N1c1ccc(F)cc1Cl (single isomer, unassigned; enantiomer 2) [Example 357, N-[(trans)-2-(2-chloro-4-fluorophenyl)-3-methyl-1-oxo-2-azaspiro[4.5]dec-8-yl]pyrazolo[1,5-a]pyrimidine-3-carboxamide (enantiomer 2)]
[1]
  IC50: ≥ 50000 nM
[2]
  IC50: 5.3 nM

## CNC(=O)c1[nH]cnc1C(=O)N[C@H]1CC[C@H](C(=O)Nc2ccc(F)cc2Cl)CC1(F)F (stereo in doubt) [Example 34, N^4-{(trans)-4-[(2-chloro-4-fluorophenyl)carbamoyl]-2,2-difluorocyclohexyl}-N^5-methyl-1H-imidazole-4,5-dicarboxamide]
[1]; Homo sapiens
  IC50: ≥ 50000 nM
[2]; Homo sapiens, HEK293, 16 h
  IC50: 210 nM

## CNC(=O)c1[nH]cnc1C(=O)NC1CCC(C(=O)Nc2ccc(F)cc2Cl)CC1C (centres unmarked) [Example 38, N^4-{4-[(2-chloro-4-fluorophenyl)carbamoyl]-2-methylcyclohexyl}-N^5-methyl-1H-imidazole-4,5-dicarboxamide]
[1]; Homo sapiens
  IC50: ≥ 50000 nM
[2]; Homo sapiens, HEK293, 16 h
  IC50: 440 nM

## CNC(=O)c1[nH]cnc1C(=O)NC1CCC(C(=O)Nc2ccc(F)cc2Cl)CC1C (centres unmarked) [Example 40, N^4-{4-[(2-chloro-4-fluorophenyl)carbamoyl]-2-methylcyclohexyl}-N^5-methyl-1H-imidazole-4,5-dicarboxamide]
[1]
  IC50: ≥ 50000 nM
[2]
  IC50: 460 nM

## O=C(N[C@H]1CC[C@H](C(=O)Nc2c(F)cc(F)cc2Cl)CC1)c1cnn2cccnc12 [Example 131, N-{trans-4-[(2-chloro-4,6-difluorophenyl)carbamoyl]cyclohexyl}pyrazolo[1,5-a]pyrimidine-3-carboxamide]
[1]; Homo sapiens
  IC50: ≥ 50000 nM
[2]; Homo sapiens, HEK293, 16 h
  IC50: 140 nM

## N#Cc1cc(F)cc(Cl)c1NC(=O)[C@H]1CC[C@H](NC(=O)c2cnn3cccnc23)CC1 [Example 152, N-{trans-4-[(2-chloro-6-cyano-4-fluorophenyl)carbamoyl]cyclohexyl}pyrazolo[1,5-a]pyrimidine-3-carboxamide]
[3]
  IC50: 140 nM
[1]; Homo sapiens
  IC50: ≥ 50000 nM
[2]; Homo sapiens, HEK293, 16 h
  IC50: 91 nM

## Cc1cc(NC(=O)[C@H]2CC[C@H](NC(=O)c3cnn4cccnc34)CC2)c(Cl)cn1 [Example 153, N-{trans-4-[(5-chloro-2-methylpyridin-4-yl)carbamoyl]cyclohexyl}pyrazolo[1,5-a]pyrimidine-3-carboxamide]
[3]
  IC50: 170 nM
[1]; Homo sapiens
  IC50: ≥ 50000 nM
[2]; Homo sapiens, HEK293, 16 h
  IC50: 530 nM

## CNC(=O)c1nc[nH]c1C(=O)N[C@H]1CC[C@H](C(=O)Nc2snc(C)c2Cl)CC1 [Example 175, N^5-{trans-4-[(4-chloro-3-methyl-1,2-thiazol-5-yl)carbamoyl]cyclohexyl}-N^4-methyl-1H-imidazole-4,5-dicarboxamide]
[1]; Homo sapiens
  IC50: 1300 nM
[2]; Homo sapiens, HEK293, 16 h
  IC50: 1600 nM

## CN1CCN(c2ccn3ncc(C(=O)N[C@H]4CC[C@@]5(CCN(c6ccc(F)cc6Cl)C5=O)CC4)c3n2)CC1 [Example 229, N-[(trans)-2-(2-chloro-4-fluorophenyl)-1-oxo-2-azaspiro[4.5]dec-8-yl]-5-(4-methylpiperazin-1-yl)pyrazolo[1,5-a]pyrimidine-3-carboxamide]
[1]; Homo sapiens
  IC50: ≥ 50000 nM
[2]; Homo sapiens, HEK293, 16 h
  IC50: 57 nM

## Cc1cc(O)n2ncc(C(=O)N[C@H]3CC[C@@]4(CCN(c5ccc(F)cc5Cl)C4=O)CC3)c2n1 [Example 364, N-[(trans)-2-(2-chloro-4-fluorophenyl)-1-oxo-2-azaspiro[4.5]dec-8-yl]-7-hydroxy-5-methylpyrazolo[1,5-a]pyrimidine-3-carboxamide]
[1]; Homo sapiens
  IC50: ≥ 50000 nM
[2]; Homo sapiens, HEK293, 16 h
  IC50: 170 nM
